From the supplement of paper PMC8882468

What follows are molecules tested on HCI-015 (organoid from a triple-negative breast cancer xenograft) (assay: CTG-3D luminescence at 96 h relative to day-0 seeding control (ratio to day 0); higher = more growth / less cytotoxicity; PDxO 3D drug screen, 96 h, CTG-3D normalised to day-0 seeding control.). Details: 12.5 pM; days in culture: 172.

| SMILES | CTG-3D luminescence at 96 h |
| --- | --- |
| O=C(O)C1(C(=O)O)CCC1.[NH2-].[NH2-].[Pt+2] [carboplatin] | 2.56 |
| COc1cc2c(Oc3ccc4[nH]c(C)cc4c3F)ncnc2cc1OCCCN1CCCC1 [cediranib] | 2.29 |
| C[C@@H]1COCCN1c1cc(C2([S@](C)(=N)=O)CC2)nc(-c2cc[nH]c3nccc2-3)n1 [ceralasertib] | 2.39 |
| Cc1cc(Nc2ncc(Cl)c(Nc3ccccc3S(=O)(=O)C(C)C)n2)c(OC(C)C)cc1C1CCNCC1 [ceritinib] | 1.51 |
| O=C(c1ccc(F)c(F)c1Nc1ccc(I)cc1F)N1CC(O)([C@@H]2CCCCN2)C1 [cobimetinib] | 2.36 |
| C[C@H](NC(=O)CCC(F)(F)F)C(=O)N[C@@H]1C(=O)N(CCO)c2ncccc2-c2ccccc21 [crenigacestat] | 2.18 |
| COc1cccc2c1C(=O)c1c(O)c3c(c(O)c1C2=O)C[C@@](O)(C(=O)CO)C[C@@H]3O[C@H]1C[C@H](N)[C@H](O)[C@H](C)O1 [doxorubicin] | 2.4 |
| C[C@]12CC[C@@H]3c4ccc(O)cc4C[C@@H](CCCCCCCCC[S+]([O-])CCCC(F)(F)C(F)(F)F)[C@H]3[C@@H]1CC[C@@H]2O (some centres not stated) [fulvestrant] | 2.41 |
| Nc1ccn([C@@H]2O[C@H](CO)[C@@H](O)C2(F)F)c(=O)n1 [gemcitabine] | 2.22 |

Same assay, conditions: 12.5 pM; days in culture: 191

| SMILES | CTG-3D luminescence at 96 h |
| --- | --- |
| O=C(O)C1(C(=O)O)CCC1.[NH2-].[NH2-].[Pt+2] [carboplatin] | 2.21 |
| COc1cc2c(Oc3ccc4[nH]c(C)cc4c3F)ncnc2cc1OCCCN1CCCC1 [cediranib] | 2.09 |
| C[C@@H]1COCCN1c1cc(C2([S@](C)(=N)=O)CC2)nc(-c2cc[nH]c3nccc2-3)n1 [ceralasertib] | 1.99 |
| Cc1cc(Nc2ncc(Cl)c(Nc3ccccc3S(=O)(=O)C(C)C)n2)c(OC(C)C)cc1C1CCNCC1 [ceritinib] | 2.15 |
| O=C(c1ccc(F)c(F)c1Nc1ccc(I)cc1F)N1CC(O)([C@@H]2CCCCN2)C1 [cobimetinib] | 1.86 |
| C[C@H](NC(=O)CCC(F)(F)F)C(=O)N[C@@H]1C(=O)N(CCO)c2ncccc2-c2ccccc21 [crenigacestat] | 1.82 |
| COc1cccc2c1C(=O)c1c(O)c3c(c(O)c1C2=O)C[C@@](O)(C(=O)CO)C[C@@H]3O[C@H]1C[C@H](N)[C@H](O)[C@H](C)O1 [doxorubicin] | 2.38 |
| C[C@]12CC[C@@H]3c4ccc(O)cc4C[C@@H](CCCCCCCCC[S+]([O-])CCCC(F)(F)C(F)(F)F)[C@H]3[C@@H]1CC[C@@H]2O (some centres not stated) [fulvestrant] | 1.78 |
| Nc1ccn([C@@H]2O[C@H](CO)[C@@H](O)C2(F)F)c(=O)n1 [gemcitabine] | 2.28 |

Same assay, conditions: 12.5 pM; days in culture: 218

| SMILES | CTG-3D luminescence at 96 h |
| --- | --- |
| O=C(O)C1(C(=O)O)CCC1.[NH2-].[NH2-].[Pt+2] [carboplatin] | 1.26 |
| COc1cc2c(Oc3ccc4[nH]c(C)cc4c3F)ncnc2cc1OCCCN1CCCC1 [cediranib] | 1.26 |
| C[C@@H]1COCCN1c1cc(C2([S@](C)(=N)=O)CC2)nc(-c2cc[nH]c3nccc2-3)n1 [ceralasertib] | 1.79 |
| Cc1cc(Nc2ncc(Cl)c(Nc3ccccc3S(=O)(=O)C(C)C)n2)c(OC(C)C)cc1C1CCNCC1 [ceritinib] | 1.77 |
| O=C(c1ccc(F)c(F)c1Nc1ccc(I)cc1F)N1CC(O)([C@@H]2CCCCN2)C1 [cobimetinib] | 1.8 |
| C[C@H](NC(=O)CCC(F)(F)F)C(=O)N[C@@H]1C(=O)N(CCO)c2ncccc2-c2ccccc21 [crenigacestat] | 1.66 |
| COc1cccc2c1C(=O)c1c(O)c3c(c(O)c1C2=O)C[C@@](O)(C(=O)CO)C[C@@H]3O[C@H]1C[C@H](N)[C@H](O)[C@H](C)O1 [doxorubicin] | 1.76 |
| C[C@]12CC[C@@H]3c4ccc(O)cc4C[C@@H](CCCCCCCCC[S+]([O-])CCCC(F)(F)C(F)(F)F)[C@H]3[C@@H]1CC[C@@H]2O (some centres not stated) [fulvestrant] | 2.19 |
| Nc1ccn([C@@H]2O[C@H](CO)[C@@H](O)C2(F)F)c(=O)n1 [gemcitabine] | 1.86 |

Same assay, conditions: 0.00025 µM; days in culture: 172

| SMILES | CTG-3D luminescence at 96 h |
| --- | --- |
| O=C(O)C1(C(=O)O)CCC1.[NH2-].[NH2-].[Pt+2] [carboplatin] | 2.15 |
| COc1cc2c(Oc3ccc4[nH]c(C)cc4c3F)ncnc2cc1OCCCN1CCCC1 [cediranib] | 1.76 |
| C[C@@H]1COCCN1c1cc(C2([S@](C)(=N)=O)CC2)nc(-c2cc[nH]c3nccc2-3)n1 [ceralasertib] | 2.46 |
| Cc1cc(Nc2ncc(Cl)c(Nc3ccccc3S(=O)(=O)C(C)C)n2)c(OC(C)C)cc1C1CCNCC1 [ceritinib] | 1.75 |
| O=C(c1ccc(F)c(F)c1Nc1ccc(I)cc1F)N1CC(O)([C@@H]2CCCCN2)C1 [cobimetinib] | 1.69 |
| C[C@H](NC(=O)CCC(F)(F)F)C(=O)N[C@@H]1C(=O)N(CCO)c2ncccc2-c2ccccc21 [crenigacestat] | 1.26 |
| COc1cccc2c1C(=O)c1c(O)c3c(c(O)c1C2=O)C[C@@](O)(C(=O)CO)C[C@@H]3O[C@H]1C[C@H](N)[C@H](O)[C@H](C)O1 [doxorubicin] | 1.39 |
| C[C@]12CC[C@@H]3c4ccc(O)cc4C[C@@H](CCCCCCCCC[S+]([O-])CCCC(F)(F)C(F)(F)F)[C@H]3[C@@H]1CC[C@@H]2O (some centres not stated) [fulvestrant] | 1.73 |
| Nc1ccn([C@@H]2O[C@H](CO)[C@@H](O)C2(F)F)c(=O)n1 [gemcitabine] | 1.3 |

Same assay, conditions: 0.00025 µM; days in culture: 191

| SMILES | CTG-3D luminescence at 96 h |
| --- | --- |
| O=C(O)C1(C(=O)O)CCC1.[NH2-].[NH2-].[Pt+2] [carboplatin] | 1.24 |
| COc1cc2c(Oc3ccc4[nH]c(C)cc4c3F)ncnc2cc1OCCCN1CCCC1 [cediranib] | 1.61 |
| C[C@@H]1COCCN1c1cc(C2([S@](C)(=N)=O)CC2)nc(-c2cc[nH]c3nccc2-3)n1 [ceralasertib] | 1.33 |
| Cc1cc(Nc2ncc(Cl)c(Nc3ccccc3S(=O)(=O)C(C)C)n2)c(OC(C)C)cc1C1CCNCC1 [ceritinib] | 1.47 |
| O=C(c1ccc(F)c(F)c1Nc1ccc(I)cc1F)N1CC(O)([C@@H]2CCCCN2)C1 [cobimetinib] | 1.15 |
| C[C@H](NC(=O)CCC(F)(F)F)C(=O)N[C@@H]1C(=O)N(CCO)c2ncccc2-c2ccccc21 [crenigacestat] | 1.27 |
| COc1cccc2c1C(=O)c1c(O)c3c(c(O)c1C2=O)C[C@@](O)(C(=O)CO)C[C@@H]3O[C@H]1C[C@H](N)[C@H](O)[C@H](C)O1 [doxorubicin] | 1.36 |
| C[C@]12CC[C@@H]3c4ccc(O)cc4C[C@@H](CCCCCCCCC[S+]([O-])CCCC(F)(F)C(F)(F)F)[C@H]3[C@@H]1CC[C@@H]2O (some centres not stated) [fulvestrant] | 1.35 |
| Nc1ccn([C@@H]2O[C@H](CO)[C@@H](O)C2(F)F)c(=O)n1 [gemcitabine] | 1.52 |

Same assay, conditions: 0.00025 µM; days in culture: 218

| SMILES | CTG-3D luminescence at 96 h |
| --- | --- |
| O=C(O)C1(C(=O)O)CCC1.[NH2-].[NH2-].[Pt+2] [carboplatin] | 1.7 |
| COc1cc2c(Oc3ccc4[nH]c(C)cc4c3F)ncnc2cc1OCCCN1CCCC1 [cediranib] | 1.53 |
| C[C@@H]1COCCN1c1cc(C2([S@](C)(=N)=O)CC2)nc(-c2cc[nH]c3nccc2-3)n1 [ceralasertib] | 1.5 |
| Cc1cc(Nc2ncc(Cl)c(Nc3ccccc3S(=O)(=O)C(C)C)n2)c(OC(C)C)cc1C1CCNCC1 [ceritinib] | 1.1 |
| O=C(c1ccc(F)c(F)c1Nc1ccc(I)cc1F)N1CC(O)([C@@H]2CCCCN2)C1 [cobimetinib] | 1.31 |
| C[C@H](NC(=O)CCC(F)(F)F)C(=O)N[C@@H]1C(=O)N(CCO)c2ncccc2-c2ccccc21 [crenigacestat] | 1.29 |
| COc1cccc2c1C(=O)c1c(O)c3c(c(O)c1C2=O)C[C@@](O)(C(=O)CO)C[C@@H]3O[C@H]1C[C@H](N)[C@H](O)[C@H](C)O1 [doxorubicin] | 1.38 |
| C[C@]12CC[C@@H]3c4ccc(O)cc4C[C@@H](CCCCCCCCC[S+]([O-])CCCC(F)(F)C(F)(F)F)[C@H]3[C@@H]1CC[C@@H]2O (some centres not stated) [fulvestrant] | 1.3 |
| Nc1ccn([C@@H]2O[C@H](CO)[C@@H](O)C2(F)F)c(=O)n1 [gemcitabine] | 1.48 |

Same assay, conditions: 0.005 µM; days in culture: 172

| SMILES | CTG-3D luminescence at 96 h |
| --- | --- |
| O=C(O)C1(C(=O)O)CCC1.[NH2-].[NH2-].[Pt+2] [carboplatin] | 2.48 |
| COc1cc2c(Oc3ccc4[nH]c(C)cc4c3F)ncnc2cc1OCCCN1CCCC1 [cediranib] | 2.22 |
| C[C@@H]1COCCN1c1cc(C2([S@](C)(=N)=O)CC2)nc(-c2cc[nH]c3nccc2-3)n1 [ceralasertib] | 2.2 |
| Cc1cc(Nc2ncc(Cl)c(Nc3ccccc3S(=O)(=O)C(C)C)n2)c(OC(C)C)cc1C1CCNCC1 [ceritinib] | 2.29 |
| O=C(c1ccc(F)c(F)c1Nc1ccc(I)cc1F)N1CC(O)([C@@H]2CCCCN2)C1 [cobimetinib] | 2.13 |
| C[C@H](NC(=O)CCC(F)(F)F)C(=O)N[C@@H]1C(=O)N(CCO)c2ncccc2-c2ccccc21 [crenigacestat] | 1.37 |
| COc1cccc2c1C(=O)c1c(O)c3c(c(O)c1C2=O)C[C@@](O)(C(=O)CO)C[C@@H]3O[C@H]1C[C@H](N)[C@H](O)[C@H](C)O1 [doxorubicin] | 2.21 |
| C[C@]12CC[C@@H]3c4ccc(O)cc4C[C@@H](CCCCCCCCC[S+]([O-])CCCC(F)(F)C(F)(F)F)[C@H]3[C@@H]1CC[C@@H]2O (some centres not stated) [fulvestrant] | 2.32 |
| Nc1ccn([C@@H]2O[C@H](CO)[C@@H](O)C2(F)F)c(=O)n1 [gemcitabine] | 1.95 |

Same assay, conditions: 0.005 µM; days in culture: 191

| SMILES | CTG-3D luminescence at 96 h |
| --- | --- |
| O=C(O)C1(C(=O)O)CCC1.[NH2-].[NH2-].[Pt+2] [carboplatin] | 1.47 |
| COc1cc2c(Oc3ccc4[nH]c(C)cc4c3F)ncnc2cc1OCCCN1CCCC1 [cediranib] | 1.52 |
| C[C@@H]1COCCN1c1cc(C2([S@](C)(=N)=O)CC2)nc(-c2cc[nH]c3nccc2-3)n1 [ceralasertib] | 1.19 |
| Cc1cc(Nc2ncc(Cl)c(Nc3ccccc3S(=O)(=O)C(C)C)n2)c(OC(C)C)cc1C1CCNCC1 [ceritinib] | 1.3 |
| O=C(c1ccc(F)c(F)c1Nc1ccc(I)cc1F)N1CC(O)([C@@H]2CCCCN2)C1 [cobimetinib] | 1.57 |
| C[C@H](NC(=O)CCC(F)(F)F)C(=O)N[C@@H]1C(=O)N(CCO)c2ncccc2-c2ccccc21 [crenigacestat] | 0.914 |
| COc1cccc2c1C(=O)c1c(O)c3c(c(O)c1C2=O)C[C@@](O)(C(=O)CO)C[C@@H]3O[C@H]1C[C@H](N)[C@H](O)[C@H](C)O1 [doxorubicin] | 1.43 |
| C[C@]12CC[C@@H]3c4ccc(O)cc4C[C@@H](CCCCCCCCC[S+]([O-])CCCC(F)(F)C(F)(F)F)[C@H]3[C@@H]1CC[C@@H]2O (some centres not stated) [fulvestrant] | 1.29 |
| Nc1ccn([C@@H]2O[C@H](CO)[C@@H](O)C2(F)F)c(=O)n1 [gemcitabine] | 0.975 |
